Common to all, as to format: cell-based
For test [1], the target named is T1, human V2 receptor (Homo sapiens, UniProt P30518).
T1 construct: expressed in transfected cells
The experiment in a line: Calcium flux assay (FLIPR), agonist mode, CHO cells expressing human V2 receptor + Gqs5. As to conditions: for EC50: CHO cells, human V2 + chimeric Gqs5, calcium flux FLIPR, read-out: hV2 EC50. The source says:
(§1) Chines Hamster Ovary (CHO) cells were transfected with expression plasmids encoding either the human V1a, the human Oxytocin (OTR) or the human V2 receptor, the later in combination with the chimeric Gqs5 G protein to redirect the signal to Calcium flux. Stable cells were cloned by limiting dilution to yield monoclonal cell lines expressing either human V1a, human V2+Gqs5 or human OTR receptors and selected based on functional responses detected on a fluorometric imaging plate reader (FLIPR) detecting Calcium flux in the cell after receptor activation. The stable cell lines were grown in F-12 K Nutrient Mixture (Kaighns Modification), containing 10% foetal bovine serum (FBS), 1% penicillin-streptomycin, 1% L-[…], 200 ug/ml Geneticin at 37° C. in a 10% CO2 incubator at 95% humidity.
(§2) On the afternoon before the assay, cells were plated at a density of 50,000 cells/well into black 96 well plates with clear bottoms to allow cell inspection and fluorescence measurements from the bottom of each well. The density of cells was sufficient to yield a confluent monolayer the next day. Hanks balanced salt solution, without phenol red, containing 20 mM HEPES (pH 7.3) and 2.5 mM probenecid (assay buffer) was prepared fresh for each experiment. Compound dilutions were made using a Beckman Biomek 2000 laboratory automation workstation, in assay buffer containing 1% DMSO. The dye-loading buffer consisted of a final concentration of 2 μM Fluo-4-AM (dissolved in DMSO and pluronic acid) in assay buffer. The existing culture media was removed from the wells and 100 μl of the dye-loading buffer was added to each well and incubated for approximately 60 min at 37° C. in a 5% CO2 incubator at 95% humidity. Once dye-loaded, the cells were washed thoroughly on an Embla cell washer with the assay buffer to remove any unincorporated dye. Exactly 100 μl assay buffer was left in each well.
(§3) Each 96 well plate containing dye-loaded cells was placed into the FLIPR machine and the laser intensity set to a suitable level to detect low basal fluorescence. To test compounds as agonists, 25 μl diluted compound was added to the plate 10 seconds into the fluorescent measurements and fluorescent response was recorded for 5 minutes. The fluorescence data was normalized to the endogenous full agonist dose-response set at 100% for the maximum response and 0% for the minimum. Each agonist concentration-response curve was constructed using a four parameter logistic equation with Microsoft Excel XLFit as follows: Y=Minimum+((Maximum−Minimum)/(1+10^(LogEC50-X)nH)), where y is the % normalized fluorescence, minimum is the minimum y, maximum is the maximum y, logEC50 is the log10 concentration which produces 50% of the maximum induced fluorescence, x is the log10 of the concentration of the agonist compound and H is the slope of the curve (the Hill Coefficient). The maximum value gives the efficacy of the agonist test compound in percentage. The concentration of agonist that produced a half-maximal response is represented by the EC50 value, the logarithm of which yielded the pEC50 value.

The target of test [2] is T2, human V1a receptor (Homo sapiens, UniProt P37288).
T2 construct: expressed in transfected cells
T2 sequence (P37288 whole entry): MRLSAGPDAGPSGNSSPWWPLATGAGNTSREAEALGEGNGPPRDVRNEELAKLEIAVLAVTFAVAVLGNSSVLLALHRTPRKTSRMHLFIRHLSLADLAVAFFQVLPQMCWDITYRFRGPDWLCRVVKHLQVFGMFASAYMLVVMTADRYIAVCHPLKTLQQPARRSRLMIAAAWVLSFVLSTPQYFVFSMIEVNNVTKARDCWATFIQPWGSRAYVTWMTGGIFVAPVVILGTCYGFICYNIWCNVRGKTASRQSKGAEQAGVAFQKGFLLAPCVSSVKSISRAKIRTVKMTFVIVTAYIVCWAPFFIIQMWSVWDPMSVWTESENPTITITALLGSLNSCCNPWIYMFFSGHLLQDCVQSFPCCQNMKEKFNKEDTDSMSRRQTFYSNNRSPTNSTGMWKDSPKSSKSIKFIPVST
The test is described as follows: Calcium flux assay (FLIPR), agonist mode, CHO cells expressing human V1a receptor. The following applies: read-out: hV1a EC50.
Description: as §1, §2, §3
In general terms: A change in cytosolic calcium serves as a functional read-out for many receptors and channels.

The target in test [3] is T3, human Oxytocin (OTR) receptor (Homo sapiens, UniProt P30559).
T3 construct: expressed in transfected cells
T3 sequence (P30559 1-389): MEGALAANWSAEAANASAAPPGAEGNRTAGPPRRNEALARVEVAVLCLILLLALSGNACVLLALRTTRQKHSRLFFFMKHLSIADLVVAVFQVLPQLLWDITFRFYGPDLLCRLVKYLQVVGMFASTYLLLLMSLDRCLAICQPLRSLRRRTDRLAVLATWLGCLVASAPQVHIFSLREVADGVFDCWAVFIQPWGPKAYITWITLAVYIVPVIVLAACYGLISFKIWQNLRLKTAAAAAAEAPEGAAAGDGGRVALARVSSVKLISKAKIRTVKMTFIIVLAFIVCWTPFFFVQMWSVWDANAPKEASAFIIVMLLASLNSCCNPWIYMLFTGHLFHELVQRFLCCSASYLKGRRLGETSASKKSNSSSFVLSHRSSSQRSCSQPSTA
The experiment in a line: Calcium flux assay (FLIPR), agonist mode, CHO cells expressing human oxytocin receptor. As to conditions: for EC50: CHO cells, human OTR, calcium flux FLIPR, read-out: hOT EC50; for hOT efficacy (%) / Emax: maximum response normalized to endogenous full agonist = 100%; for Emax: CHO, read-out: hOT efficacy (%).
Description: as §1, §2, §3

The mark [4] stands for this setting: maximum response normalized to endogenous full agonist = 100%.

Starred links: 1 amine or outer side, 2 acyl side, 3 side chain; linkers in the order of their positions; H or OH if unused. Positions of bridges follow the written chain, without caps; N, C: chain ends. Non-standard residues stand in square brackets, D forms with d. Residues, ends and D or L forms follow the SMILES beside them. d(αMeL) = CC(C)C[C@@](C)(N)C(=O)O; 2Thi = N[C@@H](Cc1cccs1)C(=O)O; Chg = N[C@H](C(=O)O)C1CCCCC1; Suc = O=C(CCC(=O)[*:2])[*:1]; Nle = CCCC[C@H](N)C(=O)O; NcPrGly = O=C(O)CNC1CC1; Nva = CCC[C@H](N)C(=O)O; Dap = NC[C@H](N)C(=O)O; Aib = CC(C)(N)C(=O)O; Sar = CNCC(=O)O

As usually defined, the EC50 is the concentration that produces a half-maximal response.

T1 sequence (P30518 whole entry): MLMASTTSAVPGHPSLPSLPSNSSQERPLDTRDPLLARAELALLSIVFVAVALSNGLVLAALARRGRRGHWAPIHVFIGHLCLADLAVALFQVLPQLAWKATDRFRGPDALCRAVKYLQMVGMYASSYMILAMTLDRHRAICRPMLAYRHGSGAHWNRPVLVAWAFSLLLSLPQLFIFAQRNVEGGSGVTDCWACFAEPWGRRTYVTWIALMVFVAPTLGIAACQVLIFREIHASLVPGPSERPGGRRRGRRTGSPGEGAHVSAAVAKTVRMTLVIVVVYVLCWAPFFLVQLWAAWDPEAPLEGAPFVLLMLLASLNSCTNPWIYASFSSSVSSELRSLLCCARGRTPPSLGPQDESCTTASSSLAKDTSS

With `CC[C@H](C)[C@@H]1NC(=O)[C@H](Cc2ccc(O)cc2)NC(=O)CCC(=O)NC[C@@H](C(=O)N2CCC[C@H]2C(=O)N[C@@H](CC(C)C)C(=O)NCC(N)=O)NC(=O)[C@H](CC(N)=O)NC(=O)[C@H](CCC(N)=O)NC1=O` [Example 1] (YIQN[Dap]PLG-NH2; linker N-5 via Suc (inferred); C-terminus assumed), the EC50 in test [1] is 216 nM; in test [2], 5120 nM; in test [3] it was 1 nM. Besides, the “hV2 efficacy (%)” value in test [1] (setting [4]) is 130%. The “hOT efficacy (%)” value in test [3] was 105%.
For `CC[C@H](C)[C@@H]1NC(=O)[C@H](Cc2ccc(O)cc2)NC(=O)[C@@H](N)CC(=O)NC[C@@H](C(=O)N(C)CC(=O)N[C@@H](CC(C)C)C(=O)NCC(N)=O)NC(=O)[C@H](CC(N)=O)NC(=O)[C@H](CCC(N)=O)NC1=O` [Example 2] (H-DYIQN[Dap][Sar]LG-NH2; lactam 1-6), the EC50 in test [2] is greater than 27000 nM. In test [3], the concentration giving a half-maximal response (EC50) was 4 nM and the “hOT efficacy (%)” value is 144%.
Regarding `CC[C@H](C)[C@@H]1NC(=O)[C@H](Cc2ccc(O)cc2)NC(=O)CCC(=O)NC[C@@H](C(=O)N(C)CC(=O)N[C@@H](CC(C)C)C(=O)NCC(N)=O)NC(=O)[C@H](CC(N)=O)NC(=O)[C@H](CCC(N)=O)NC1=O` [Example 3] (YIQN[Dap][Sar]LG-NH2; linker N-5 via Suc), the EC50 in test [1] was 612 nM; in test [2], greater than 27000 nM; in test [3] it was 0.9 nM. The “hV2 efficacy (%)” value in test [1] (setting [4]) was determined as 130%. Moreover, the Emax in test [3] turned out to be 113%.
As to `CC[C@H](C)[C@@H]1NC(=O)[C@H](Cc2ccc(O)cc2)NC(=O)CCC(=O)NC[C@@H](C(=O)N(C)CC(=O)N[C@H](C(=O)NCC(N)=O)C(C)C)NC(=O)[C@H](CC(N)=O)NC(=O)[C@H](CCC(N)=O)NC1=O` [Example 5] (YIQN[Dap][Sar]VG-NH2; linker N-5 via Suc), the figures for the EC50 in test [1], in test [2] and in test [3] were 1130 nM, greater than 27000 nM and 0.7 nM, respectively. Besides, the Emax was found to be 123% in test [1] (CHO, maximum response normalized to endogenous full agonist = 100%, read-out: hV2 efficacy (%)) and 111% in test [3].
With `CCCC[C@H](NC(=O)CN(C)C(=O)[C@@H]1CNC(=O)CCC(=O)N[C@@H](Cc2ccc(O)cc2)C(=O)N[C@@H]([C@@H](C)CC)C(=O)N[C@@H](CCC(N)=O)C(=O)N[C@@H](CC(N)=O)C(=O)N1)C(=O)NCC(N)=O` [Example 6] (YIQN[Dap][Sar][Nle]G-NH2; linker N-5 via Suc), the figures for the EC50 in test [1], in test [2] and in test [3] were 364 nM, greater than 27000 nM and 1 nM, respectively. In addition, the “hV2 efficacy (%)” value in test [1] (setting [4]) was 104%. The “hOT efficacy (%)” value in test [3] is 119%.
Turning to `CCC[C@H](NC(=O)[C@@H]1CCCN1C(=O)[C@@H]1CNC(=O)CCC(=O)N[C@@H](Cc2ccc(O)cc2)C(=O)N[C@@H]([C@@H](C)CC)C(=O)N[C@@H](CCC(N)=O)C(=O)N[C@@H](CC(N)=O)C(=O)N1)C(=O)NCC(N)=O` [Example 17] (YIQN[Dap]P[Nva]G-NH2; linker N-5 via Suc), the EC50 was 116 nM in test [1], 351 nM in test [2] and 0.6 nM in test [3]. Further, the “hV2 efficacy (%)” value in test [1] (setting [4]) is given as 116/116%. The Emax in test [3] was determined as 114%.
With `CC[C@H](C)[C@@H]1NC(=O)[C@H](Cc2ccc(O)cc2)NC(=O)CCC(=O)NC[C@@H](C(=O)N(C)CC(=O)N[C@@H](Cc2cccs2)C(=O)NCC(N)=O)NC(=O)[C@H](CC(N)=O)NC(=O)[C@H](CCC(N)=O)NC1=O` [Example 34] (YIQN[Dap][Sar][2Thi]G-NH2; linker N-5 via Suc), in test [3], the EC50 is 3 nM and the “hOT efficacy (%)” value is 106%.
`CC[C@H](C)[C@@H]1NC(=O)[C@H](Cc2ccc(O)cc2)NC(=O)CCC(=O)NC[C@@H](C(=O)N(C)CC(=O)N[C@@H](Cc2cnc[nH]2)C(=O)NCC(N)=O)NC(=O)[C@H](CC(N)=O)NC(=O)[C@H](CCC(N)=O)NC1=O` [Example 35] (YIQN[Dap][Sar]HG-NH2; linker N-5 via Suc): in test [3], the EC50 was determined as 4 nM and the “hOT efficacy (%)” value is reported as 111%.
The corresponding values for `CC[C@H](C)[C@@H]1NC(=O)[C@H](Cc2ccc(O)cc2)NC(=O)CCC(=O)NC[C@@H](C(=O)N(C)CC(=O)N[C@@H](Cc2c[nH]c3ccccc23)C(=O)NCC(N)=O)NC(=O)[C@H](CC(N)=O)NC(=O)[C@H](CCC(N)=O)NC1=O` [Example 36] (YIQN[Dap][Sar]WG-NH2; linker N-5 via Suc) are 2 nM and 111%.
As to `CC[C@H](C)[C@@H]1NC(=O)[C@H](Cc2ccc(O)cc2)NC(=O)CCC(=O)NC[C@@H](C(=O)N(CC(=O)N[C@](C)(CC(C)C)C(=O)NCC(N)=O)C2CC2)NC(=O)[C@H](CC(N)=O)NC(=O)[C@H](CCC(N)=O)NC1=O` [Example 39] (YIQN[Dap][NcPrGly][d(αMeL)]G-NH2; linker N-5 via Suc), in test [3], the EC50 was 1.3 nM and the Emax was determined as 108%.
For `CC[C@H](C)[C@@H]1NC(=O)[C@H](Cc2ccc(O)cc2)NC(=O)CCC(=O)NC[C@@H](C(=O)N(CC(=O)N[C@@H](C(=O)NCC(N)=O)C(C)C)C2CC2)NC(=O)[C@H](CC(N)=O)NC(=O)[C@H](CCC(N)=O)NC1=O` [Example 40] (YIQN[Dap][NcPrGly][dV]G-NH2; linker N-5 via Suc), in that order: 0.6 nM and 106%.
The corresponding values for `CC[C@H](C)[C@@H]1NC(=O)[C@H](Cc2ccc(O)cc2)NC(=O)CCC(=O)NC[C@@H](C(=O)N(CC(=O)NC(C)(C)C(=O)NCC(N)=O)C2CC2)NC(=O)[C@H](CC(N)=O)NC(=O)[C@H](CCC(N)=O)NC1=O` [Example 41] (YIQN[Dap][NcPrGly][Aib]G-NH2; linker N-5 via Suc) are 2.5 nM and 108%.
For `CC[C@@H](C)[C@@H](NC(=O)CN(C(=O)[C@@H]1CNC(=O)CCC(=O)N[C@@H](Cc2ccc(O)cc2)C(=O)N[C@@H]([C@@H](C)CC)C(=O)N[C@@H](CCC(N)=O)C(=O)N[C@@H](CC(N)=O)C(=O)N1)C1CC1)C(=O)NCC(N)=O` [Example 42] (YIQN[Dap][NcPrGly][dI]G-NH2; linker N-5 via Suc), in that order: 0.37 nM and 115%.
Turning to `CC[C@H](C)[C@@H]1NC(=O)[C@H](Cc2ccc(O)cc2)NC(=O)CCC(=O)NC[C@@H](C(=O)N(CC(=O)N[C@H](C(=O)NCC(N)=O)C2CCCCC2)C2CC2)NC(=O)[C@H](CC(N)=O)NC(=O)[C@H](CCC(N)=O)NC1=O` [Example 43] (YIQN[Dap][NcPrGly][Chg]G-NH2; linker N-5 via Suc), in test [3], the EC50 was determined as 0.26 nM and the Emax was found to be 110%.
The corresponding values for `CC[C@H](C)[C@@H]1NC(=O)[C@H](Cc2ccc(O)cc2)NC(=O)CCC(=O)NC[C@@H](C(=O)N(CC(=O)N[C@H](C(=O)NCC(N)=O)[C@@H](C)O)C2CC2)NC(=O)[C@H](CC(N)=O)NC(=O)[C@H](CCC(N)=O)NC1=O` [Example 44] (YIQN[Dap][NcPrGly]TG-NH2; linker N-5 via Suc) are 0.9 nM and 115%.
For `CC[C@H](C)[C@@H]1NC(=O)[C@H](Cc2ccc(O)cc2)NC(=O)CCC(=O)NC[C@@H](C(=O)N(CC(=O)N[C@@H](CO)C(=O)NCC(N)=O)C2CC2)NC(=O)[C@H](CC(N)=O)NC(=O)[C@H](CCC(N)=O)NC1=O` [Example 45] (YIQN[Dap][NcPrGly]SG-NH2; linker N-5 via Suc), in that order: 0.8 nM and 117%.

The values above are taken from patent publication US9957298B2, “Peptides as oxytocin agonists” (Hoffmann-La Roche Inc., priority 2014, dated 2018).
